# Target: T1, MyD88^TIR (Homo sapiens, UniProt Q99836)
# T1 construct: MyD88 (residues 148–296); 6xHis; made in house; host or cells: E. coli BL21 (DE3)
# Assay: T‐Surf phage library (P8 and P3) selection against MyD88^TIR, four rounds, NGS read counts
# Format: binding
# Settings: for P8_MyD88 Rank (after) / P8_MyD88 Rank (before): P8 library; for Population: 4th round of selection against MyD88 TIR, share of NGS reads; for P3_MyD88 Rank (after) / P3_MyD88 Rank (before): P3 library
# Procedure, shortened: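 P8 and P3 T‐Surf libraries panned against plate-coated TIR domains (5 µg mL^−1), 1 h binding at RT, acid elution and TG1/helper-phage amplification per round. After four rounds, pools were PCR-barcoded and sequenced (NovaSeq, 100 bp paired-end, Phred ≥30); peptides ranked by read counts.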
# [1] = selection against MyD88, rank after grouping
# [2] = selection against MyD88, rank before grouping
# [3] = P8_MyD88: rank by count after grouping
# [4] = P8_MyD88: rank by count before grouping
# [5] = P8_MyD88 pool: P8 T-Surf phage library
# [6] = P3_MyD88 pool: P3 T-Surf phage library
# [7] = selection against MyD88, rank by count after grouping
# [8] = selection against MyD88, rank by count before grouping
# [9] = P8_MyD88: rank by NGS read count after grouping
# [10] = P8_MyD88: rank by NGS read count before grouping
# [11] = P3_MyD88: rank by count after grouping
# [12] = P3_MyD88: rank by count before grouping
# [13] = selection against MyD88 TIR, rank by count after grouping
# [14] = selection against MyD88 TIR, rank by count before grouping
# [15] = 4R selection against MyD88, rank after grouping
# [16] = 4R selection against MyD88, rank before grouping
# T1 sequence (Q99836 148-296): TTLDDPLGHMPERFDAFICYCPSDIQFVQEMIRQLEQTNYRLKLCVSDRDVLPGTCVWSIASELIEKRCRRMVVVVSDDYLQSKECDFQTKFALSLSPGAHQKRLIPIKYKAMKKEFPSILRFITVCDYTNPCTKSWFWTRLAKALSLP
sequence,measurement,setting,value
LGYHWLNWESFVGIED,P8_MyD88 Rank (after),[1],547
same,P8_MyD88 Rank (before),[2],3345
ELDFSHFWLFDGQATGEA,Rank (after),[3],120
same,Rank (before),[4],174
same,Population,[5],0.00809%
SGFREGLWRLLELSKK,Population,[6],0.00291%
NELVRVWSSKANSRVG,P3_MyD88 Rank (after),[7],716
same,P3_MyD88 Rank (before),[8],3402
DPQELVWRYERLVSLF,Rank (after),[9],962
same,Rank (before),[10],3010
DPQDLDWFYERLLSLS,Rank (after),[3],422
same,Rank (before),[4],2764
YTALTNMSFHTFRDNY,P3_MyD88 Rank (after),[7],677
same,P3_MyD88 Rank (before),[8],1653
DPQDLDWFYETSGEPD,Rank (after),[9],911
same,Rank (before),[10],2804
LNVESWRQALERAGKL,Rank (after),[11],187
same,Rank (before),[12],2402
YTARTNSGFHTFLDND,P3_MyD88 Rank (after),[13],225
same,P3_MyD88 Rank (before),[14],1708
GLSWGPYEWWIDLYDA,Rank (after),[9],889
same,Rank (before),[10],2308
SWAVDELLKILQAWDE,Rank (after),[3],137
same,Rank (before),[4],151
same,Population,[5],0.0108%
FGDHRMWWEDLVGIVD,P8_MyD88 Rank (after),[7],695
same,P8_MyD88 Rank (before),[8],1302
AVAHEISKKMKIFATI,Population,[6],0.00262%
YTAMTNSGFHTFRGND,Rank (after),[11],429
same,Rank (before),[12],1711
SSTWALDELERILEYM,P8_MyD88 Rank (after),[13],198
same,P8_MyD88 Rank (before),[14],294
DTALTNSGFHTLRDND,Rank (after),[11],450
same,Rank (before),[12],2091
WLLDQLDKILEAHGTT,P8_MyD88 Rank (after),[7],693
same,P8_MyD88 Rank (before),[8],1380
NELVHVWCCKANSQAG,Rank (after),[11],420
same,Rank (before),[12],3407
TSHLHRAWRLNELRTY,P3_MyD88 Rank (after),[13],284
same,P3_MyD88 Rank (before),[14],3294
IDDEHLTYLGRLLLSR,P8_MyD88 Rank (after),[15],580
same,P8_MyD88 Rank (before),[16],3649
IVQEQDGFWVRLIEAL,P8_MyD88 Rank (after),[15],616
same,P8_MyD88 Rank (before),[16],3611
GEDTRYTFTGHLHRYLVQRGV,P3_MyD88 Rank (after),[13],240
same,P3_MyD88 Rank (before),[14],917
WEDVRINFLSHFLKEL,P8_MyD88 Rank (after),[13],253
same,P8_MyD88 Rank (before),[14],434
PQDLEWLYERLVRLIL,P8_MyD88 Rank (after),[13],287
same,P8_MyD88 Rank (before),[14],3472
GFIDNLYQALANMGIH,Rank (after),[3],122
same,Rank (before),[4],129
same,Population,[5],0.0143%
WFLTAFRMAMDQVADT,Rank (after),[3],95
same,Rank (before),[4],100
same,Population,[5],0.025%
FFSGFRELEDFISKLW,Rank (after),[3],105
same,Rank (before),[4],108
same,Population,[5],0.02%
DPQVRVWFYERLVSLF,P8_MyD88 Rank (after),[7],755
same,P8_MyD88 Rank (before),[8],2659
LFWANLRAALQGDLPY,Rank (after),[3],130
same,Rank (before),[4],143
same,Population,[5],0.0116%
DPQDLGCFYERLVSLF,P8_MyD88 Rank (after),[15],611
same,P8_MyD88 Rank (before),[16],2721
EWILSKLSQHILKREK,P3_MyD88 Rank (after),[15],632
same,P3_MyD88 Rank (before),[16],2128
LGYHWIAWECFVGIED,Rank (after),[3],426
same,Rank (before),[4],3247
FIDFLFDAFETKGIFV,Rank (after),[3],103
same,Rank (before),[4],107
same,Population,[5],0.0216%
MEANSSRIWHRLLYSV,P8_MyD88 Rank (after),[7],769
same,P8_MyD88 Rank (before),[8],3687
ENYAFSSWALGELLHI,P8_MyD88 Rank (after),[13],192
same,P8_MyD88 Rank (before),[14],247
TSTWALDELLRILY,Rank (after),[9],912
same,Rank (before),[10],3824
LVAHEISKKMKIFETI,Population,[6],0.00466%
YLRWGYPWFGDRLRFA,P3_MyD88 Rank (after),[1],539
same,P3_MyD88 Rank (before),[2],1562
DPQELDWYYERLVSLF,P8_MyD88 Rank (after),[13],241
same,P8_MyD88 Rank (before),[14],2986
YTSLTNRGFLIFRDND,P3_MyD88 Rank (after),[15],596
same,P3_MyD88 Rank (before),[16],1624
LVALEISKKMTIFATI,P3_MyD88 Rank (after),[13],228
same,P3_MyD88 Rank (before),[14],2269
WTLNELQTILNILDIG,P8_MyD88 Rank (after),[15],656
same,P8_MyD88 Rank (before),[16],1656
YAFTGHLHRYLVLRGA,P3_MyD88 Rank (after),[15],630
same,P3_MyD88 Rank (before),[16],1502
DPQDLDWFFERLVSLL,Rank (after),[3],117
same,Rank (before),[4],707
EYRNESKSVWDIINAI,P8_MyD88 Rank (after),[15],642
same,P8_MyD88 Rank (before),[16],3172
YTALTNSGFSEENLF,P3_MyD88 Rank (after),[15],668
same,P3_MyD88 Rank (before),[16],1683
DPQDLDWFYERLVSL,P8_MyD88 Rank (after),[13],233
same,P8_MyD88 Rank (before),[14],716
YAFTGHFQRYLVQRGV,Rank (after),[11],422
same,Rank (before),[12],1485
EPQDLDWFYERLVSLL,Rank (after),[3],94
same,Rank (before),[4],478
SSFREGLWRLLELSEK,Population,[6],0.00349%
QYSGTPLAHTSKFPDE,P3_MyD88 Rank (after),[15],605
same,P3_MyD88 Rank (before),[16],2832
WALDELLQILHAKETM,P8_MyD88 Rank (after),[15],598
same,P8_MyD88 Rank (before),[16],1458
KNLSNELVSKNILTFM,P3_MyD88 Rank (after),[13],260
same,P3_MyD88 Rank (before),[14],3787
WALYELLHILHARELF,P8_MyD88 Rank (after),[1],532
same,P8_MyD88 Rank (before),[2],1401
NQWRHALTAEANLSGW,Rank (after),[11],408
same,Rank (before),[12],3472
DPQDMEWFYERLVSLIL,P8_MyD88 Rank (after),[15],602
same,P8_MyD88 Rank (before),[16],2975
KERPFGAQRAEKWRAALT,P3_MyD88 Rank (after),[1],567
same,P3_MyD88 Rank (before),[2],3671
YASSSWALDELLKILYANETM,Rank (after),[3],190
same,Rank (before),[4],277
YELDFSHFWLFDGHATGEA,P8_MyD88 Rank (after),[13],239
same,P8_MyD88 Rank (before),[14],1938
DPQDLQWFYERLVSLL,Population,[5],0.03%
FLSYRALEKRFGRLA,P3_MyD88 Rank (after),[15],625
same,P3_MyD88 Rank (before),[16],1351
EWALHQLQQIIKWHQT,P8_MyD88 Rank (after),[13],212
same,P8_MyD88 Rank (before),[14],323
YGHESEIIKEIVDTIV,Population,[6],0.00262%
DFLKWDNEAIMIKKIA,Rank (after),[9],993
same,Rank (before),[10],2369
PQDLQWFYERLVSLI,Rank (after),[3],150
same,Rank (before),[4],186
same,Population,[5],0.00694%
DPQDLDCFYERLVNLF,Rank (after),[3],408
same,Rank (before),[4],2740
YFRNESEFIQEIVQWV,Rank (after),[3],118
same,Rank (before),[4],125
same,Population,[5],0.0162%
LGYHWIDWAYFVGIEE,P8_MyD88 Rank (after),[13],242
same,P8_MyD88 Rank (before),[14],3250
LKVESCRQALEKTGKL,Rank (after),[11],181
same,Rank (before),[12],2473
SSFSEGLWRLLELRKK,P3_MyD88 Rank (after),[13],191
same,P3_MyD88 Rank (before),[14],3251
ALLKKLDSGFSEEKLL,P3_MyD88 Rank (after),[13],267
same,P3_MyD88 Rank (before),[14],1950
WALSELVEILRARENM,P8_MyD88 Rank (after),[13],195
same,P8_MyD88 Rank (before),[14],254
SLRKNVVSNLLEEFKR,P3_MyD88 Rank (after),[1],524
same,P3_MyD88 Rank (before),[2],3079
DHHLDLPRGKAIKE,P3_MyD88 Rank (after),[1],550
same,P3_MyD88 Rank (before),[2],2017
